Earlier results, collected in patent US20120283197A1, “Compositions Comprising a Glucose Anti-Metabolite, BHA, and/or BHT” (priority 2011, published 2012).

Tests used:
[1] = system: cultured insulin secreting cells
[2] = rats, fed for 18 months, 140 mg/Kg body weight per day
[3] = system: hexokinase or other glycolytic enzymes; settings: extracts of mouse lung
[4] = system: adipocytes; settings: rats, fed for 18 months, 140 mg/Kg body weight per day
[5] = mice, dogs, and other species

SMILES: COc1ccc(O)c(C(C)(C)C)c1 [BHA, butylated hydroxyanisole]
- alloxan-induced increase in insulin secretion [1]: prevent the alloxan-induced increase in insulin secretion
- negative effects of alloxan [1]: blocked the negative effects of alloxan

SMILES: Cc1cc(C(C)(C)C)c(O)c(C(C)(C)C)c1 [BHT, butylated hydroxytoluene]
- insulin sensitivity [2]: increased insulin sensitivity
- effect on hexokinase or other glycolytic enzymes [3]: no effect
- age-related reduction in insulin-stimulated glucose transport in adipocytes [4]: partially ameliorated

SMILES: O=C(CO)[C@@H](O)[C@@H](O)[C@H](O)[C@H](O)CO [Mannoheptulose, mannoheptulose]
- plasma insulin levels and/or insulin sensitivity [5]: lower plasma insulin levels and/or increase insulin sensitivity
